Counter-ions that a name gives are not always drawn. Like-named read-outs stand apart in the source and are kept apart here.
Columns and labels:
[1] = test system: ionophore-induced LTB4 production; settings: oral administration, mouse blood ex vivo; cited from earlier work
[2] = test system: ionophore-induced LTB4 production; settings: oral administration, rat peritoneum in vivo; cited from earlier work
spontaneous colitis = settings: eight weeks of treatment, primate model; cited from earlier work
[3] = biological target: T1, recombinant human LTA4 hydrolase (Homo sapiens, UniProt P09960); assay: In vitro assay testing inhibitory activity against purified recombinant human LTA4 hydrolase; type: biochemical; settings: 200 nM recombinant enzyme, 2 μM LTA4, 120 sec, LTB4 formed measured by LC-MS/MS
T1 construct: A human LTA4 hydrolase full-length cDNA clone (NM_000895) was purchased from OriGene Technologies; 6xHis (own knowledge: pDEST17 adds an N-terminal His tag); made in house; host or cells: Escherichia coli BL21-AI
T1 sequence (P09960 1-611): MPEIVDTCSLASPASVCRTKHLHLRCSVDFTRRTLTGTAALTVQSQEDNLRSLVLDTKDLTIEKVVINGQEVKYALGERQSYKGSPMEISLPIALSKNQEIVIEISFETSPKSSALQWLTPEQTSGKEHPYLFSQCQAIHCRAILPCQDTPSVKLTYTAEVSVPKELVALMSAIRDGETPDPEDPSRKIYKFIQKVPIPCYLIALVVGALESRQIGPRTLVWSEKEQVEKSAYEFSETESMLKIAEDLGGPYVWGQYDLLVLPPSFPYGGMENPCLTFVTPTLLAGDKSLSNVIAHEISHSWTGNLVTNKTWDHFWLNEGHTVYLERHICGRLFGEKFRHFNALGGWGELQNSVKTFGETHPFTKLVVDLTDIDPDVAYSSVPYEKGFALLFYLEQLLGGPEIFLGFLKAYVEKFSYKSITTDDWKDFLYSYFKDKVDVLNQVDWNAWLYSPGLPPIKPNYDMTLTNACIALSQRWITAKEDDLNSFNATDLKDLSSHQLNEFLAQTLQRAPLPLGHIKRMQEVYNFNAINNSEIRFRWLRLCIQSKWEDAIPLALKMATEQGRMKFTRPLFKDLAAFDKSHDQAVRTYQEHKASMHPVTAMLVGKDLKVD
Text: (1) In vitro assay testing inhibitory activity against purified recombinant human LTA4 hydroase:
A human LTA4 hydrolase full-length cDNA clone (NM_000895) was purchased from OriGene Technologies (Rockville, Md.). The gene was amplified by polymerase chain reaction and transferred via pDONR201 into the bacterial expression vector pDEST17 by recombination (both plasmids from Invitrogen, Carlsbad, Calif.). The resulting construct was transformed into Escherichia coli BL21-AI (Invitrogen), and expression was induced by chemical induction with arabinose. The recombinant enzyme was purified by chromatography on a FPLC system (Amersham Biosciences, Uppsala, Sweden) using immobilized metal affinity chromatography (Ni-NTA Superflow, Qiagen, Hilden, Germany) and anion exchange chromatography (MonoQ HR 10/10, Amersham Biosciences).
The compounds of the invention were incubated in a series of dilutions with 200 nM of recombinant enzyme in assay buffer (100 mM Tris-HCl, 100 mM NaCl, 5 mg/ml fatty-acid free BSA, 10% DMSO, pH 8.0) for 10 min at room temperature to allow binding between LTA4 hydrolase and the inhibitors. LTA4 was prepared by alkaline hydrolysis of LTA4 methyl ester (Biomol, Plymouth Meeting, Pa., or Cayman Chemicals, Ann Arbor, Mich.). A solution of 10 μg of the ester was dried under a nitrogen stream and redissolved in 60 μl of a solution of 80% aceton and 20% 0.25 M NaOH. After incubation for 40 min at room temperature the resulting approximately 500 μM tock of LTA4 was kept at −80° C. for no more than a few days prior to use.
Immediately before the assay, LTA4 was diluted to a concentration of 10 μM in assay buffer (without DMSO) and added to the reaction mixture to a final concentration of 2 μM to initiate the enzyme reaction. After incubation for 120 sec at room temperature, the reaction was stopped by adding 2 volumes of chilled quenching buffer, containing acetonitril with 1% acetic acid and 225 nM LTB4-d4 (Biomol). The samples were then kept at 4° C. over night to complete protein precipitation and centrifuged for 15 min at 1800 g. LTB4 formed was measured by LC-MS/MS using LTB4-d4 as an internal standard and an external LTB4 standard (Biomol) as reference. Briefly, the analyte was separated from LTB4 isomers formed by spontaneous hydrolysis of LTA4 using isocratic elution (modified protocol from Mueller et al. (1996), J. Biol. Chem. 271, 24345-24348) on a HPLC system (Waters, Milford, Mass.) and analyzed on a tandem quadrupole mass spectrometer (Waters). MRM transitions followed on 2 channels were 335.2>195.3 (LTB4) and 339.2>197.3 (LTB4-d4). Based on the amounts of LTB4 found at each inhibitor concentration, a dose-response curve was fitted to the data and an IC50 value was calculated.

Compound | IC50 [3] | further results
CN(CCCOc1ccc(Cc2ccccc2)cc1)CCC(=O)O.Cl [SC57461] | – | inhibition of ionophore-induced LTB4 production [1]: inhibition; inhibition of ionophore-induced LTB4 production [2]: inhibition; colitis symptoms (spontaneous colitis): significantly improved
C#CCOc1ccc(OC[C@H]2CCCN2)cc1 [Example 1, (R)-2-(4-Prop-2-ynyloxy-phenoxymethyl)-pyrrolidine hydrochloride] | 5 to 20 µM | –
CC#CCOc1ccc(OCCN2CCCCC2)cc1 [Example 6, 1-[2-(4-But-2-ynyloxy-phenoxy)-ethyl]-piperidine] | 5 to 20 µM | –
C(#Cc1ccccc1)COc1ccc(OC[C@H]2CCCN2)cc1 [Example 2, 2-[4-(3-Phenyl-prop-2-ynyloxy)-phenoxymethyl]-pyrrolidine] | < 5 µM | –
Brc1ccc(C#CCOc2ccc(OC[C@H]3CCCN3)cc2)cc1 [Example 4, 2-{4-[3-(4-Bromo-phenyl)-prop-2-ynyloxy]-phenoxymethyl}-pyrrolidine hydrochloride] | 5 to 20 µM | –
(4-{3-[4-(Pyrrolidin-2-ylmethoxy)-phenoxy]-prop-1-ynyl}-phenyl)-methanol [Example 3] | < 5 µM | –

Reference: patent publication US7728032B2, “Phenoxymethylalkyne inhibitors of LTA4H for treating inflammation” (deCODE genetics ehf, priority 2006, dated 2010)
